This is an account of results in patent US20220235057A1, “CYCLIC FORMYL AND CYCLIC KETONE COMPOUNDS, PREPARATION METHOD THEREFOR, AND PHARMACEUTICAL USE” (priority 2019, published 2022).

What all share (format): cell-based
The test system of one assay is dengue virus (DENV). The assay can be described thus: anti-dengue virus activity (EC50).
For assay [1], the system named is drug resistant strains of Acinetobacter baumannii. As to the kind of experiment: anti-drug resistant strains of Acinetobacter baumannii (MIC).
For another assay, the system named is Zika virus. The assay can be described thus: anti-Zika virus activity (EC50).
Another assay concerns Usutu virus (USUV). As to the kind of experiment: anti-Usutu virus activity (inhibition rate). The following applies: Usutu virus; for inhibition at 11 µM: Drug concentration 11 μM; for inhibition at 33 µM: Drug concentration 33 μM.
The subject of a further assay is Zika virus (ZIKV). The assay can be described thus: anti-Zika virus activity (inhibition rate). Conditions: Zika virus; for inhibition at 11 µM: Drug concentration 11 μM; for inhibition at 33 µM: Drug concentration 33 μM.
Where [2] appears, read: resistant strain of Acinetobacter baumannii no. 17.
Setting [3] is: resistant strain of Acinetobacter baumannii no. 18.
Setting [4] is: resistant strain of Acinetobacter baumannii no. 19.
Where [5] appears, read: resistant strain of Acinetobacter baumannii no. 20.

Values after ≈ are worked out from the molar mass of the structure shown.

As usually defined, the EC50 is the concentration needed to bring the measured effect to its halfway point. Usually MIC stands for the least concentration at which growth counts as inhibited. Lower therefore signals a more susceptible organism. What is called inhibition is the percentage by which the read-out fell short of the control. A high value points to a response far below the control.

In turn, `CC(C)(C)[Si](C)(C)Oc1ccc(C2N(Nc3ccc([N+](=O)[O-])cc3)C(=O)C3CCc4ccccc4N32)cc1` (stereo not drawn) [ZXD-132A] displayed an EC50 with dengue virus (DENV) of 640 nM.
In the assay on dengue virus (DENV), `O=C1C2CCCCN2C(c2ccco2)N1c1ccc([N+](=O)[O-])cc1` (stereo not drawn) [ZBJ-12A] had an EC50 of 1200 nM.
Turning to `C=C(C)c1ccc(C2N(Nc3ccccc3)C(=O)C3CCc4ccccc4N32)cc1` (stereo not drawn) [ZXD-89A], a half-maximal response in the assay with dengue virus (DENV) (EC50) required 740 nM.
Compound `O=C(NNc1ccccc1)C1CCc2ccccc2N1` (stereo not drawn) [ZXD-44] yielded an EC50 with dengue virus (DENV) of 1500 nM. Moreover, the MIC in assay [1] (setting [2]) came out at 4 µg/mL (≈ 15 µM); in assay [1] (setting [3]), 8 µg/mL (≈ 29.9 µM); in assay [1] (setting [4]) it was 8 µg/mL (≈ 29.9 µM); in assay [1] (setting [5]), 2 µg/mL (≈ 7.48 µM).
Take `O=C(NNc1ccccc1)c1c[nH]c2ccccc12` [ZFD-38]: the MIC in assay [1] (setting [2]) turned out to be 8 µg/mL (≈ 31.8 µM); in assay [1] (setting [3]), 8 µg/mL (≈ 31.8 µM); in assay [1] (setting [4]), 8 µg/mL (≈ 31.8 µM); in assay [1] (setting [5]), 4 µg/mL (≈ 15.9 µM).
`O=C1C2Cc3ccccc3CN2C(c2ccco2)N1Nc1ccccc1` (stereo not drawn) [ZSD-28B]: the MIC was > 64 µg/mL in assay [1] (setting [2]), 8 µg/mL (≈ 23.2 µM) in assay [1] (setting [3]), 8 µg/mL (≈ 23.2 µM) in assay [1] (setting [4]) and 8 µg/mL (≈ 23.2 µM) in assay [1] (setting [5]).
The compound `O=C1[C@H]2CCc3ccccc3N2C(Cc2ccc([N+](=O)[O-])cc2)N1Nc1ccccc1` (stereo partly drawn) [ZXD-100A] came in with a 50% effective concentration (EC50) in the assay with dengue virus (DENV) of 2000 nM.
For the compound `O=C(NNc1ccccc1)[C@@H]1Cc2ccccc2CN1` [ZSD-16], the MIC in assay [1] (setting [2]) stood at 2 µg/mL (≈ 7.48 µM); in assay [1] (setting [3]), 8 µg/mL (≈ 29.9 µM); in assay [1] (setting [4]), 4 µg/mL (≈ 15 µM); in assay [1] (setting [5]), 4 µg/mL (≈ 15 µM).
As to `O=C(NNc1ccc(OCc2ccccc2)cc1)[C@@H]1Cc2ccccc2N1` [ZBM-6], the MIC in assay [1] (setting [2]) turned out to be 2 µg/mL (≈ 5.56 µM); in assay [1] (setting [3]), 4 µg/mL (≈ 11.1 µM); in assay [1] (setting [4]), 2 µg/mL (≈ 5.56 µM); in assay [1] (setting [5]) it was 4 µg/mL (≈ 11.1 µM).
With `O=C(NNc1ccccc1)C1CCCCN1` (stereo not drawn) [ZXD-2-1], the MIC came to 4 µg/mL (≈ 18.2 µM) in assay [1] (setting [2]), 4 µg/mL (≈ 18.2 µM) in assay [1] (setting [3]), 8 µg/mL (≈ 36.5 µM) in assay [1] (setting [4]) and 4 µg/mL (≈ 18.2 µM) in assay [1] (setting [5]).
In the case of `Nc1ccc(NNC(=O)[C@@H]2Cc3ccccc3N2)cc1` [ZBM-8], the MIC in assay [1] (setting [2]) came out at 2 µg/mL (≈ 7.45 µM); in assay [1] (setting [3]), 4 µg/mL (≈ 14.9 µM); in assay [1] (setting [4]), 2 µg/mL (≈ 7.45 µM); in assay [1] (setting [5]) it was 4 µg/mL (≈ 14.9 µM).
Turning to `O=C1[C@@H]2CCc3ccccc3N2[C@@H](Cc2ccc(O)cc2)N1Nc1ccccc1` [ZXD-127B], the EC50 with dengue virus (DENV) was 5200 nM.
In the case of `O=C1C2CCc3ccccc3N2C(c2ccc(O)cc2)N1Nc1ccc([N+](=O)[O-])cc1` (stereo not drawn) [ZXD-133A], the midpoint of the response in the assay with dengue virus (DENV), the EC50, lay at 19500 nM.
As for `O=C(NNc1ccc(F)cc1)c1ccc[nH]1` [ZBM-21], the MIC in assay [1] (setting [2]), in assay [1] (setting [3]), in assay [1] (setting [4]) and in assay [1] (setting [5]) was 0.5 µg/mL (≈ 2.28 µM) in each case.
Consider `O=C(NNc1ccc(F)cc1)C1CNc2ccccc21` (stereo not drawn) [ZBM-11], for which the MIC is 1 µg/mL (≈ 3.69 µM) in assay [1] (setting [2]), 2 µg/mL (≈ 7.37 µM) in assay [1] (setting [3]), 1 µg/mL (≈ 3.69 µM) in assay [1] (setting [4]) and 1 µg/mL (≈ 3.69 µM) in assay [1] (setting [5]).
In the case of `COc1ccc(C2c3c([nH]c4ccccc34)C(=O)N2Nc2ccc([N+](=O)[O-])cc2)cc1OC` (stereo not drawn) [ZFD-33A + B], a half-maximal effect with Zika virus (EC50) was put at 17200 nM.
`O=C1C2CCc3ccccc3N2C(c2ccc(Cl)cc2)N1Nc1ccccc1` (stereo not drawn) [ZXD-87A] came in with an EC50 in the assay with Zika virus of 3400 ± 380 nM.
Turning to `O=C(NNc1ccc(F)cc1)c1c[nH]c2ccccc12` [ZBM-20], the MIC was determined as 0.5 µg/mL (≈ 1.86 µM) in assay [1] (setting [2]), 1 µg/mL (≈ 3.71 µM) in assay [1] (setting [3]), 0.5 µg/mL (≈ 1.86 µM) in assay [1] (setting [4]) and 0.5 µg/mL (≈ 1.86 µM) in assay [1] (setting [5]).
Regarding `O=C(NNc1ccccc1)c1ccc[nH]1` [ZFD-42], the MIC is 4 µg/mL (≈ 19.9 µM) in assay [1] (setting [2]), 4 µg/mL (≈ 19.9 µM) in assay [1] (setting [3]), 4 µg/mL (≈ 19.9 µM) in assay [1] (setting [4]) and 1 µg/mL (≈ 4.97 µM) in assay [1] (setting [5]).
Turning to `O=C1[C@@H]2CCc3ccccc3N2[C@@H](c2ccccc2O)N1Nc1ccccc1` [ZXD-120B], the EC50 in the assay on dengue virus (DENV) amounted to 6500 nM.
In the case of `O=C(NNc1ccc(F)cc1)[C@H]1CCNC1` [ZBM-19], the MIC worked out at 2 µg/mL (≈ 8.96 µM) in assay [1] (setting [2]), 2 µg/mL (≈ 8.96 µM) in assay [1] (setting [3]), 2 µg/mL (≈ 8.96 µM) in assay [1] (setting [4]) and 1 µg/mL (≈ 4.48 µM) in assay [1] (setting [5]).
As for `O=C(NNc1ccc(F)cc1)c1cc2ccccc2[nH]1` [ZFD-44], the minimum inhibitory concentration (MIC) was determined as 0.5 µg/mL (≈ 1.86 µM) in assay [1] (setting [2]), 1 µg/mL (≈ 3.71 µM) in assay [1] (setting [3]), 1 µg/mL (≈ 3.71 µM) in assay [1] (setting [4]) and 1 µg/mL (≈ 3.71 µM) in assay [1] (setting [5]).
`COc1cc(C2N(Nc3ccccc3)C(=O)C3CCc4ccccc4N32)ccc1O[Si](C)(C)C(C)(C)C` (stereo not drawn) [ZXD-142A]: the EC50 turned out to be 1560 ± 210 nM in the assay on Zika virus and 1600 nM in the assay on dengue virus (DENV).
In the case of `O=C(NNc1ccccc1)[C@@H]1Cc2ccccc2N1` [ZDL-101], the MIC in assay [1] (setting [2]) turned out to be 4 µg/mL (≈ 15.8 µM); in assay [1] (setting [3]), 4 µg/mL (≈ 15.8 µM); in assay [1] (setting [4]) it was 4 µg/mL (≈ 15.8 µM); in assay [1] (setting [5]), 2 µg/mL (≈ 7.9 µM).
`COc1ccc([C@H]2N(Nc3ccc([N+](=O)[O-])cc3)C(=O)[C@@H]3Cc4ccccc4N32)cc1O[Si](C)(C)C(C)(C)C` [ZDL-93] showed an EC50 in the assay on dengue virus (DENV) of 24800 nM.
Regarding `O=C(NNc1ccc(F)cc1)[C@@H]1Cc2ccccc2N1` [ZBM-5], the MIC was 2 µg/mL (≈ 7.37 µM) in assay [1] (setting [2]), 2 µg/mL (≈ 7.37 µM) in assay [1] (setting [3]), 1 µg/mL (≈ 3.69 µM) in assay [1] (setting [4]) and 2 µg/mL (≈ 7.37 µM) in assay [1] (setting [5]).
On to `CC1(C)OB(c2ccc(C3N(Nc4ccccc4)C(=O)[C@@H]4Cc5ccccc5CN34)cc2)OC1(C)C` (stereo partly drawn) [ZSD-32], for which the inhibition at 11 µM in the assay with Usutu virus (USUV) and with Zika virus (ZIKV) was < 0% each time. In addition, the inhibition at 33 µM is 0 to 100% in the assay on Usutu virus (USUV) and < 0% in the assay on Zika virus (ZIKV).
Regarding `O=C1[C@@H]2CCc3ccccc3N2[C@@H](c2ccccc2)N1Nc1ccc([N+](=O)[O-])cc1` [ZXD-106], the EC50 with dengue virus (DENV) amounted to 5200 nM.
For the compound `O=C1[C@@H]2Cc3ccccc3CN2C(c2ccc([N+](=O)[O-])cc2)N1Nc1ccccc1` (stereo partly drawn) [ZSD-18], in the assay on Usutu virus (USUV), the inhibition at 11 µM is < 0% and the inhibition at 33 µM fell in the range of 0 to 100%. For the same compound, in the assay on Zika virus (ZIKV), the inhibition at 11 µM was < 0% and the inhibition at 33 µM was 0 to 100%.
`O=C1[C@@H]2CCc3ccccc3N2[C@@H](Cc2ccc([N+](=O)[O-])cc2)N1Nc1ccccc1` [ZXD-100B]: in the assay with dengue virus (DENV), the EC50 is 850 nM.
On the same count and under the same terms, the value for `COc1ccc([C@H]2N(Nc3ccc([N+](=O)[O-])cc3)C(=O)[C@@H]3Cc4ccccc4N32)cc1OC` [ZDL-89] was 11600 nM; that for `O=C(NNc1ccc([N+](=O)[O-])cc1)C1CCc2ccccc2N1` (stereo not drawn) [ZXD-45] was 310 nM.
Turning to `O=C1[C@@H]2CCc3ccccc3N2[C@@H](Cc2ccccc2)N1Nc1ccc([N+](=O)[O-])cc1` [ZXD-107A], the results for the inhibition at 11 µM with Usutu virus (USUV) and in the assay on Zika virus (ZIKV) were < 0% and > 100%, respectively. For the same compound, the inhibition at 33 µM with Usutu virus (USUV) is < 0%. The compound further returned an EC50 with dengue virus (DENV) of 120 nM.
As to `O=C1[C@@H]2CCc3ccccc3N2C(c2ccc([N+](=O)[O-])c(O)c2)N1Nc1ccccc1` (stereo partly drawn) [ZXD-95], in the assay on Usutu virus (USUV), the inhibition at 11 µM is < 0% and the inhibition at 33 µM fell in the range of 0 to 100%. The compound further displayed an inhibition at 11 µM with Zika virus (ZIKV) of 0 to 100%.
In turn, `O=C1[C@@H]2CCc3ccccc3N2[C@@H](c2ccc([N+](=O)[O-])cc2)N1Nc1ccc([N+](=O)[O-])cc1` [ZXD-78A] had an EC50 in the assay with dengue virus (DENV) of 170 nM.
